In patent publication US11684614B2, “Formulations of hydroxypyridonate actinide/lanthanide decorporation agents” (priority 2017, dated 2023):
Where “and” joins values, the source holds several entries; their conditions need not be identical. Identical values can stand only once.

Test: Repeated-treatment efficacy for removing an intravenous dose of 238Pu (excretion, tissue retention, clinical observations), female and male arms
Type: in vivo, Swiss-Webster mice
Details: listed as 3,4,3-LI(1,2-HOPO); for % Recovered Dose - Feces per Day: male mice
Protocol: The objective of this study was to characterize the efficacy of 3,4,3-L1(1,2-HOPO) at enhancing elimination from an internal plutonium burden in female and male Swiss-Webster mice administered a soluble citrate complex of ^238Pu and treated multiple times, starting at 24 hours after the exposure. Efficacy was evaluated by comparing the tissue contents, urinary and fecal excretions of ^238Pu in treated animals versus untreated animals.
The medical countermeasure 3,4,3-L1(1,2-HOPO) was administered parenterally (ip) or orally (po) via consecutive injections or gavages (six daily or twelve twice daily) starting at 24 hours post contamination at the following four selected doses: 30 μmol/kg ip, 150 μmol/kg po, 300 μmol/kg po, and 600 μmol/kg po (equivalent to respective approximate human doses range of […], using the accepted conversion system of mouse doses into human equivalent doses—HED—based on body surface area). Oral doses also included the permeability enhancer selected during formulation development work.
• Challenge isotope: ^238Pu • Challenge dose: 25 nCi (i.e., approximately 0.8 μCi/kg) • Route of contamination: Intravenous (iv) tail-vein • Route of treatment: Intraperitoneal Injection (ip) or Oral (po) • Frequency of treatment: Multiple (once- or twice-daily for 6 days) doses, starting 24 hr postcontamination • Treatment dose calculation: Dose calculations (mg/kg or μmol/kg) for the decorporation agent were based on the individual body weight measured after contamination. • Study Duration: 11 days, in-life
c. […] Test article and control dose formulations were prepared within 1 day of dose administration, by weighing out the appropriate amount of test article, dispersing in vehicle. For ip solutions, the test article was used alone, while for oral suspensions, a mixture of test article and excipient (90:10, w:w) was used. The pH was adjusted to 7.0-7.4 for ip administration and 5.0-5.5 for oral administration with sterile NaOH. Dose formulations were prepared at room temperature and filter-sterilized. • Storage: 2-8° C.; refrigerated; protected from light. • Characterization: The concentration of each test article formulation was verified by high-performance liquid chromatography-mass spectrometry. • Test Article Handling: Test, reference, and control article formulations were handled with the use of eye protection, gloves, and a protective laboratory coat. • Correct Dose Assurance: The test article was weighed with calibrated balances. The administration of each dose formulation was properly documented, and the amount administered to each animal recorded.
e. Experimental Procedures (In-Life Evaluations and Euthanasia) • Contamination: Single administration by intravenous (iv) tail-vein injection (0.2 mL injection volume) under isoflurane anesthesia. Three standard 0.2 mL injections were performed into polyethylene bottles and pre-loaded with aliquots of concentrated nitric acid on each injection day. Six female and six male mice were culled for necropsy 1 hr post-contamination and were used as standards. A11 standards were processed and counted together with the final samples to allow verification of the contamination dose. • Dose Administration: Single administration by intraperitoneal injection (ip) or oral gavage (po) under isoflurane anesthesia. • Mortality/Morbidity: Assessed at least once daily. • Clinical Observations: Recorded once daily (4 hr post-dose on day of treatment), or more often as clinical signs warranted. […]

[1] = male arm table, Day 11 necropsy, animal group M

## O=C(NCCCN(CCCCN(CCCNC(=O)c1cccc(=O)n1O)C(=O)c1cccc(=O)n1O)C(=O)c1cccc(=O)n1O)c1cccc(=O)n1O [3,4,3-L1(1,2-HOPO)]
[1]
  % Recovered Dose Urine per Day, Day 5: 0.66% and 0.36% and 0.19% and 0.53% and 0.60% and 0.47% and 0.30% and 0.22%
  % Recovered Dose Urine per Day, Day 6: 0.38% and 0.35% and 0.46% and 0.26% and 0.36% and 0.41% and 0.12% and 0.61%
  % Recovered Dose Urine per Day, Day 7: 0.73% and 0.69% and 0.76% and 0.65% and 0.63% and 0.83% and 0.47% and 0.38%
  % Recovered Dose Urine per Day, Day 8: 0.40% and 0.36% and 0.42% and 0.32% and 0.43% and 0.34% and 0.74% and 0.33%
  % Recovered Dose Urine per Day, Day 9: 0.40% and 0.45% and 0.37% and 0.42% and 0.61% and 0.41% and 0.48%
  % Recovered Dose Urine per Day, Day 10: 0.12% and 0.23% and 0.16% and 0.28% and 0.21% and 0.62% and 0.46% and 0.27%
  % Recovered Dose Urine per Day, Day 11: 0.35% and 0.30% and 0.22% and 0.20% and 0.36% and 0.43% and 0.26% and 0.42%
Group B, feces day 1, Day 7 necropsy
  % Recovered Dose - Feces per Day: 4.37% and 8.32% and 7.75% and 4.30%
Group B, feces day 2, Day 7 necropsy
  % Recovered Dose - Feces per Day: 7.66% and 12.16% and 9.09% and 13.43%
Group B, feces day 3, Day 7 necropsy
  % Recovered Dose - Feces per Day: 2.15% and 3.85% and 3.59% and 3.55%
Group B, feces day 4, Day 7 necropsy
  % Recovered Dose - Feces per Day: 3.14% and 4.08% and 1.98% and 4.25%
Group B, feces day 5, Day 7 necropsy
  % Recovered Dose - Feces per Day: 1.34% and 2.97% and 0.93% and 2.49%
Group B, feces day 6, Day 7 necropsy
  % Recovered Dose - Feces per Day: 2.28% and 6.44% and 1.47% and 2.02%
Group B, feces day 7, Day 7 necropsy
  % Recovered Dose - Feces per Day: 1.46% and 2.68% and 1.21% and 2.10%
Group C, feces day 1, Day 7 necropsy
  % Recovered Dose - Feces per Day: 8.78% and 6.29% and 9.94% and 4.97%
Group C, feces day 2, Day 7 necropsy
  % Recovered Dose - Feces per Day: 15.31% and 12.37% and 22.78% and 14.58%
Group C, feces day 3, Day 7 necropsy
  % Recovered Dose - Feces per Day: 2.49% and 5.42% and 4.54% and 6.24%
Group C, feces day 4, Day 7 necropsy
  % Recovered Dose - Feces per Day: 3.01% and 3.04% and 5.87% and 3.77%
Group C, feces day 5, Day 7 necropsy
  % Recovered Dose - Feces per Day: 1.70% and 2.00% and 3.00% and 2.15%
Group C, feces day 6, Day 7 necropsy
  % Recovered Dose - Feces per Day: 1.91% and 2.24% and 2.37% and 2.32%
Group C, feces day 7, Day 7 necropsy
  % Recovered Dose - Feces per Day: 1.21% and 1.32% and 1.95% and 1.31%
Group E, feces day 1, Day 7 necropsy
  % Recovered Dose - Feces per Day: 6.19% and 11.96% and 7.28% and 11.97%
Group E, feces day 2, Day 7 necropsy
  % Recovered Dose - Feces per Day: 19.35% and 15.22% and 16.75% and 13.98%
Group E, feces day 3, Day 7 necropsy
  % Recovered Dose - Feces per Day: 3.91% and 2.72% and 3.36% and 3.87%
Group E, feces day 4, Day 7 necropsy
  % Recovered Dose - Feces per Day: 5.36% and 3.66% and 5.40% and 5.25%
Group E, feces day 5, Day 7 necropsy
  % Recovered Dose - Feces per Day: 1.97% and 1.84% and 1.67% and 1.79%
Group E, feces day 6, Day 7 necropsy
  % Recovered Dose - Feces per Day: 2.01% and 2.66% and 2.92% and 1.87%
Group E, feces day 7, Day 7 necropsy
  % Recovered Dose - Feces per Day: 2.11% and 1.97% and 2.22% and 1.18%
Group F, feces day 1, Day 7 necropsy
  % Recovered Dose - Feces per Day: 6.91% and 7.78% and 14.62% and 9.13%
Group F, feces day 2, Day 7 necropsy
  % Recovered Dose - Feces per Day: 14.25% and 13.00% and 16.24% and 15.40%
Group F, feces day 3, Day 7 necropsy
  % Recovered Dose - Feces per Day: 13.31% and 3.36% and 3.68% and 5.91%
Group F, feces day 4, Day 7 necropsy
  % Recovered Dose - Feces per Day: 4.17% and 4.09% and 3.98% and 3.52%
Group F, feces day 5, Day 7 necropsy
  % Recovered Dose - Feces per Day: 1.77% and 2.34% and 1.75% and 1.78%
Group F, feces day 6, Day 7 necropsy
  % Recovered Dose - Feces per Day: 1.60% and 2.84% and 1.72% and 1.54%
Group F, feces day 7, Day 7 necropsy
  % Recovered Dose - Feces per Day: 0.74% and 2.65% and 2.45% and 1.59%
